The values below come from DBAASP.

Some test systems named below: Candida krusei ATCC 6258; Staphylococcus aureus MR; Bacillus subtilis 168; Escherichia coli BL21; Ralstonia solanacearum; Escherichia coli UB1005.
What all share (assay): ≥ marks a high value that may be exact or a test limit, other limits are often not marked, values filed in µg/mL are converted to µM
Assay [1] deals with Candida glabrata ATCC 90030.
The subject of assay [2] is Enterococcus faecalis CECT 481.
Assay [3] concerns Escherichia coli CECT 434.
In assay [4] the test system is Staphylococcus aureus CECT 435.
Assay [5] relates to Streptococcus agalactiae CECT 183T.
Assay [6] has as its system Candida albicans NCTC 1467.
The test system of assay [7] is Escherichia coli NCTC 10418.
Assay [8] relates to Klebsiella pneumoniae ATCC 43816.
The subject of assay [9] is Pseudomonas aeruginosa ATCC 27853.
The subject of assay [10] is Staphylococcus aureus NCTC 10788.
The subject of assay [11] is Staphylococcus aureus NCTC 12493.
In assay [12] the test system is Clavibacter michiganensis subsp. michiganensis.
The subject of assay [13] is Pseudomonas syringae pv. tomato DC3000.
The subject of assay [14] is Xanthomonas campestris pv. holcicola.
Assay [15] concerns Xanthomonas oryzae pv. oryzae.
The subject of assay [16] is Burkholderia cepacia ATCC 25416.
The test system of assay [17] is Pseudomonas aeruginosa H374.
In assay [18] the test system is Pseudomonas aeruginosa H547.
Assay [19] has as its system Pseudomonas aeruginosa H744.
Assay [20] concerns Pseudomonas aeruginosa K799.
Assay [21] deals with Pseudomonas aeruginosa Z61.
Assay [22] has as its system Salmonella enterica subsp. enterica serovar Typhimurium ATCC 14028s.
Assay [23] concerns Aspergillus oryzae NBRC 100959.
Assay [24] has as its system Candida viswanathii NBRC 10321.
In assay [25] the test system is Escherichia coli NBRC 3972.
For assay [26], the system named is Micrococcus luteus NBRC 3333.
Assay [27] has as its system Staphylococcus epidermidis NBRC 12993.
Assay [28] has as its system Bacillus cereus ATCC 10876.
Assay [29] deals with Enterococcus faecalis ATCC 29212.
Assay [30] relates to Salmonella enterica subsp. enterica serovar Typhimurium ATCC 14028.
For assay [31], the system named is Staphylococcus aureus ATCC 6538.
Assay [32] deals with Streptococcus agalactiae ATCC 27956.
Assay [33] has as its system Streptococcus dysgalactiae subsp. dysgalactiae ATCC 27957.
Assay [34] concerns Streptococcus equi subsp. zooepidemicus ATCC 43079.

SMILES strings stand for the structures. In brackets after ≈: the same amount, converted by molar mass. Some results are limits rather than exact numbers.

With `CC[C@H](C)[C@H](NC(=O)CNC(=O)[C@H](CCC(N)=O)NC(=O)[C@@H](NC(=O)[C@@H]1CCCN1C(=O)CNC(=O)[C@H](CC(=O)O)NC(=O)CNC(=O)[C@H](CCCCN)NC(=O)[C@H](CC(C)C)NC(=O)[C@@H](NC(=O)[C@H](CS)NC(=O)[C@@H](NC(=O)[C@H](C)NC(=O)[C@H](CCCCN)NC(=O)[C@@H](NC(=O)[C@H](C)N)[C@@H](C)O)C(C)C)C(C)C)C(C)C)C(=O)N[C@H](C(=O)N[C@@H](CC(N)=O)C(=O)N[C@@H](Cc1ccccc1)C(=O)O)[C@@H](C)CC` [ATKAVCVLKGDGPVQGIINF], the MIC in assay [1] is not below 126 µM; against Candida krusei ATCC 6258, 3.94 µM (≈ 8 µg/mL); in [2] it was 7.88 µM (≈ 16 µg/mL); in assay [3], 31.5 µM (≈ 64 µg/mL); in assay [4], 7.88 µM (≈ 16 µg/mL); in the assay with Staphylococcus aureus MR, 7.88 µM (≈ 16 µg/mL). The same molecule returned an MIC in [5] of 7.88 µM (≈ 16 µg/mL).
Take `CC[C@H](C)[C@@H]1NC(=O)[C@H](CC(C)C)NC(=O)[C@@H](NC(=O)[C@H](Cc2ccccc2)NC(=O)[C@H](CC(C)C)NC(=O)[C@H](CCCCN)NC(=O)[C@H](Cc2ccc(O)cc2)NC(=O)[C@H](CC(C)C)NC(=O)[C@@H](NC(=O)[C@H](CCCCN)NC(=O)[C@@H](NC(=O)[C@@H](NC(=O)[C@H](C)NC(=O)CNC(=O)[C@H](CC(C)C)NC(=O)[C@H](C)NC(=O)[C@@H](N)Cc2ccccc2)C(C)C)[C@@H](C)O)C(C)C)CSSC[C@@H](C(=O)O)NC(=O)[C@H](CCCCN)NC(=O)[C@H](CCCN=C(N)N)NC(=O)[C@H]([C@@H](C)O)NC1=O` [FALGAVTKVLYKLFCLITRKC]: the MIC in assay [6] is not below 64 µM; in [7], not below 128 µM; in [8], not below 128 µM; in [9] it was more than 128 µM; in assay [10], 4 µM (≈ 9.54 µg/mL); in assay [11], 8 µM (≈ 19.1 µg/mL).
As for `CC[C@H](C)[C@H](NC(=O)CNC(=O)[C@H](C)NC(=O)CN)C(=O)NCC(=O)N1CCC[C@H]1C(=O)NCC(=O)N[C@@H](Cc1cnc[nH]1)C(=O)N[C@@H](CCCN=C(N)N)C(=O)N[C@@H](CCCN=C(N)N)C(=O)N[C@H](C(=O)N[C@@H](Cc1c[nH]c2ccccc12)C(=O)N[C@@H](CCCN=C(N)N)C(=O)N[C@@H](CCCN=C(N)N)C(=O)N[C@@H](Cc1c[nH]c2ccccc12)C(=O)N1CCC[C@H]1C(=O)N[C@@H](CCCN=C(N)N)C(=O)N[C@@H](CCCN=C(N)N)C(=O)N[C@@H](CCCN=C(N)N)C(=O)N[C@@H](Cc1c[nH]c2ccccc12)C(=O)N[C@@H](CCCN=C(N)N)C(=O)O)[C@@H](C)O` [GAGIGPGHRRTWRRWPRRRWR], the MIC against Bacillus subtilis 168 was found to be 16 µM (≈ 42.7 µg/mL); in [12] it was 16 µM (≈ 42.7 µg/mL); with Escherichia coli BL21, 16 µM (≈ 42.7 µg/mL); in assay [13] it was 4 µM (≈ 10.7 µg/mL); in the assay with Ralstonia solanacearum, 8 µM (≈ 21.4 µg/mL); in [14] it was 16 µM (≈ 42.7 µg/mL). In [15], this molecule showed an MIC of 4 µM (≈ 10.7 µg/mL).
Consider `CC[C@H](C)[C@H](NC(=O)CNC(=O)[C@@H](NC(=O)[C@H](CCCCN)NC(=O)[C@H](CCCCN)NC(=O)[C@@H](NC(=O)[C@H](Cc1ccccc1)NC(=O)[C@H](CCCCN)NC(=O)[C@H](CCCCN)NC(=O)[C@H](Cc1c[nH]c2ccccc12)NC(=O)[C@H](CCCCN)NC(=O)[C@@H](N)CCCCN)[C@@H](C)CC)[C@@H](C)CC)C(=O)NCC(=O)N[C@@H](C)C(=O)N[C@H](C(=O)N[C@@H](CC(C)C)C(=O)N[C@H](C(=O)N[C@H](C(=O)N1CCC[C@H]1C(=O)NCC(=O)N[C@@H](C)C(=O)N[C@@H](CCCCN)C(=O)N[C@@H](CCCCN)C(=O)O)[C@@H](C)O)[C@@H](C)O)C(C)C` [KKWKKFIKKIGIGAVLTTPGAKK], for which the MIC amounted to 25.2 µM (≈ 64 µg/mL) in assay [16]; 1.57 µM (≈ 4 µg/mL) with Escherichia coli UB1005; 3.15 µM (≈ 8 µg/mL) in assay [17]; 6.3 µM (≈ 16 µg/mL) in [18]; 1.57 µM (≈ 4 µg/mL) in assay [19]; 25.2 µM (≈ 64 µg/mL) in assay [20]. For the same molecule, the MIC in assay [21] came to 12.6 µM (≈ 32 µg/mL); in assay [22] it was 1.57 µM (≈ 4 µg/mL).
On to `CC[C@H](C)[C@H](NC(=O)[C@H](CC(C)C)NC(=O)[C@@H](N)CCCN=C(N)N)C(=O)N[C@@H](CCCCN)C(=O)N[C@@H](CCCN=C(N)N)C(=O)N[C@@H](Cc1ccc(O)cc1)C(=O)N[C@@H](CC(C)C)C(=O)N[C@@H](CCCN=C(N)N)C(=O)N[C@@H](CCCN=C(N)N)C(=O)N[C@@H](CCSC)C(=O)N[C@@H](Cc1c[nH]c2ccccc12)C(=O)O` [RLIKRYLRRMW], for which the MIC in assay [23] was not below 126 µM; in assay [24], not below 62.9 µM; in assay [25], not below 503 µM; in [26], not below 62.9 µM; in assay [27], not below 126 µM.
On to `CC[C@H](C)[C@H](NC(=O)[C@H](CC(C)C)NC(=O)[C@H](CC(N)=O)NC(=O)CNC(=O)[C@H](Cc1ccccc1)NC(=O)[C@@H](NC(=O)[C@H](CCCN=C(N)N)NC(=O)[C@@H](NC(=O)[C@H](CC(C)C)NC(=O)[C@H](CCC(N)=O)NC(=O)[C@H](Cc1ccc(O)cc1)NC(=O)[C@@H](N)Cc1c[nH]c2ccccc12)[C@@H](C)CC)[C@@H](C)O)C(=O)N[C@@H](Cc1cnc[nH]1)C(=O)N[C@@H](CCC(N)=O)C(=O)N[C@@H](CCCCN)C(=O)N[C@@H](Cc1ccc(O)cc1)C(=O)N[C@@H](CCCN=C(N)N)C(=O)N[C@@H](CCCCN)C(=O)N[C@@H](CC(C)C)C(=O)N[C@@H](CC(C)C)C(=O)N[C@@H](CCC(=O)O)C(=O)N[C@@H](C)C(=O)N[C@@H](Cc1ccc(O)cc1)C(=O)N[C@@H](CCCN=C(N)N)C(=O)N[C@@H](CCCCN)C(=O)N[C@@H](CC(C)C)C(=O)N[C@@H](CCCN=C(N)N)C(=O)N[C@@H](CC(=O)O)C(=O)O` [WYQLIRTFGNLIHQKYRKLLEAYRKLRD], for which the MIC in assay [28] is 1.66 µM (≈ 6 µg/mL); in assay [29], 0.552 µM (≈ 2 µg/mL); in [9] it was more than 8.83 µM; in assay [30], more than 8.83 µM; in assay [31], 0.414 µM (≈ 1.5 µg/mL); in assay [32], 11 µM (≈ 39.9 µg/mL). Moreover, the MIC in assay [33] and in assay [34] was 11 µM (≈ 39.9 µg/mL) in each case.

The term MIC denotes the smallest concentration in the dilution series that meets the test's criterion for growth inhibition. A high value points to a less susceptible organism.
